For this assay, the system named is hepatic B cells. Put plainly: Hepatic B cell characterization by flow cytometry, with liver/plasma cytokine and chemokine levels (Example 6). Type of assay: in vivo, mouse. The procedure: Male C57BL/6 mice (age 8-10 wks) were treated with mirt (20 mg/kg ip) or vehicle and livers removed 3-5 hrs later for B cell isolation and characterization by flow cytometry (FACS). Similarly peripheral blood and splenic B cells numbers were determined by FACS. Liver cytokine and chemokine levels were measured by Luminex®.
(In general: In flow cytometry, cells or beads pass a laser one at a time.)

In the case of `CN1CCN2c3ncccc3Cc3ccccc3C2C1` (stereo not drawn) [Mirtazapine], where the note is “20 mg/kg ip, 3-5 hrs”, the “B cell CXCR3 expression levels (MFI)” value is recorded as 12180±315.9, the “Elevation of hepatic CXCL10 levels (Luminex)” value is roughly 120 fold, the “Frequency of VLA-4+ hepatic B cells” value was 61.9+1.8% and the “Hepatic CXCR3+ B cells” value is 47.5+1.4%. Also, under “20 mg/kg ip, 3-5 hrs”, the “Hepatic CXCR3hi B cells” value was found to be 30.7±1.5%, the “Hepatic CXCR3lo B cells” value is recorded as “did not significantly alter”, the “Increase in hepatic IFNγ levels (Luminex)” value is roughly 8 fold and the “VLA-4+CXCR3hi B cells” value amounted to 16.1±1.7%. Besides, the “Decrease in total hepatic B cell (IgM+) numbers” value (20 mg/kg ip, within 3-5 hours) is on record as roughly 48%. For the same molecule, the “% B2 cells of IgM+ B cells in liver” value (5 hr post-treatment) was 29.6%+2.3%. For the same molecule, for the setting “5 hrs post-treatment”, the “B1a B cells within the liver” value is recorded as 32.4%+1.5% and the “Plasma levels of CXCL10 (ELISA)” value stood at 138.4 ± 24.4 pg/mL. The “Hepatic B1b B cells” value (5 hrs post-treatment, NS) is recorded as 23.5%+1.4%. The “CD11b+Ly6Chi monocytes producing CXCL10” value (flow cytometry, 3 hrs post-treatment) is 12.2%±3.8%. In addition, the “Hepatic VCAM-1 expression (immunohistochemistry)” value (post-mirt) was “clear upregulation”.

Source of the values: patent publication US11510928B2, “Use of mirtazapine in the treatment of inflammatory disorders, autoimmune disease and PBC” (UTI Limited Partnership, priority 2017, dated 2022).
